Measured values published in the NIST ThermoML archive (doi:10.1016/j.fluid.2019.05.015).
± gives the expanded uncertainty stated by the source.

Columns and labels:
[1] = refractive index (Na D-line) (dimensionless); xn = mol fraction of the nth substance listed; settings: 100 kPa, Liquid, Standard Abbe refractometry
[2] = mean ionic activity coefficient (dimensionless); mn = molality of the nth substance listed, in mol/kg; settings: 100 kPa, Liquid, Electrochemical cell potential

CCn1cc[n+](C)c1.[Br-] [1-ethyl-3-methylimidazolium bromide] + O
refractive index ([1]; 298.2 K, x2 = 0.0971): 1.549 ± 0.0006
refractive index ([1]; 298.2 K, x2 = 0.188): 1.545 ± 0.0006
refractive index ([1]; 298.2 K, x2 = 0.2981): 1.536 ± 0.0006
refractive index ([1]; 298.2 K, x2 = 0.3857): 1.5335 ± 0.0006
refractive index ([1]; 298.2 K, x2 = 0.471): 1.525 ± 0.0005
refractive index ([1]; 298.2 K, x2 = 0.5966): 1.5115 ± 0.0005
refractive index ([1]; 298.2 K, x2 = 0.6884): 1.4985 ± 0.0005
refractive index ([1]; 298.2 K, x2 = 0.7863): 1.4625 ± 0.0005
refractive index ([1]; 298.2 K, x2 = 0.8884): 1.4305 ± 0.0005
refractive index ([1]; 308.2 K, x2 = 0.0926): 1.5455 ± 0.0006
refractive index ([1]; 308.2 K, x2 = 0.1801): 1.5425 ± 0.0006
refractive index ([1]; 308.2 K, x2 = 0.2947): 1.534 ± 0.0006
refractive index ([1]; 308.2 K, x2 = 0.3829): 1.53 ± 0.0006
refractive index ([1]; 308.2 K, x2 = 0.4714): 1.5235 ± 0.0005
refractive index ([1]; 308.2 K, x2 = 0.5983): 1.509 ± 0.0005
refractive index ([1]; 308.2 K, x2 = 0.6871): 1.4955 ± 0.0005
refractive index ([1]; 308.2 K, x2 = 0.7851): 1.4595 ± 0.0005
refractive index ([1]; 308.2 K, x2 = 0.888): 1.427 ± 0.0005
refractive index ([1]; 318.2 K, x2 = 0.0923): 1.5425 ± 0.0006
refractive index ([1]; 318.2 K, x2 = 0.1796): 1.54 ± 0.0006
refractive index ([1]; 318.2 K, x2 = 0.2939): 1.531 ± 0.0006
refractive index ([1]; 318.2 K, x2 = 0.382): 1.5265 ± 0.0006
refractive index ([1]; 318.2 K, x2 = 0.4704): 1.521 ± 0.0005
refractive index ([1]; 318.2 K, x2 = 0.5974): 1.5065 ± 0.0005
refractive index ([1]; 318.2 K, x2 = 0.6862): 1.4925 ± 0.0005
refractive index ([1]; 318.2 K, x2 = 0.7844): 1.458 ± 0.0005
refractive index ([1]; 318.2 K, x2 = 0.8876): 1.425 ± 0.0005
mean ionic activity coefficient ([2]; 298.2 K, m1 = 0.021): 0.8957 ± 0.005
mean ionic activity coefficient ([2]; 298.2 K, m1 = 0.0419): 0.748 ± 0.0051
mean ionic activity coefficient ([2]; 298.2 K, m1 = 0.0585): 0.7149 ± 0.0052
mean ionic activity coefficient ([2]; 298.2 K, m1 = 0.0791): 0.6998 ± 0.005
mean ionic activity coefficient ([2]; 298.2 K, m1 = 0.0995): 0.6908 ± 0.0049
mean ionic activity coefficient ([2]; 298.2 K, m1 = 0.2548): 0.5703 ± 0.0048
mean ionic activity coefficient ([2]; 298.2 K, m1 = 0.4968): 0.4953 ± 0.0048
mean ionic activity coefficient ([2]; 298.2 K, m1 = 0.7334): 0.45 ± 0.0048
mean ionic activity coefficient ([2]; 298.2 K, m1 = 1.003): 0.397 ± 0.0048
mean ionic activity coefficient ([2]; 298.2 K, m1 = 1.244): 0.378 ± 0.0048
mean ionic activity coefficient ([2]; 298.2 K, m1 = 1.489): 0.361 ± 0.0048
mean ionic activity coefficient ([2]; 308.2 K, m1 = 0.0211): 0.8798 ± 0.0044
mean ionic activity coefficient ([2]; 308.2 K, m1 = 0.042): 0.8527 ± 0.0045
mean ionic activity coefficient ([2]; 308.2 K, m1 = 0.0586): 0.8229 ± 0.0045
mean ionic activity coefficient ([2]; 308.2 K, m1 = 0.0793): 0.769 ± 0.0045
mean ionic activity coefficient ([2]; 308.2 K, m1 = 0.0999): 0.7385 ± 0.0045
mean ionic activity coefficient ([2]; 308.2 K, m1 = 0.2555): 0.6299 ± 0.0045
mean ionic activity coefficient ([2]; 308.2 K, m1 = 0.4948): 0.5249 ± 0.0044
mean ionic activity coefficient ([2]; 308.2 K, m1 = 0.7324): 0.4686 ± 0.0044
mean ionic activity coefficient ([2]; 308.2 K, m1 = 1.003): 0.42 ± 0.0044
mean ionic activity coefficient ([2]; 308.2 K, m1 = 1.245): 0.39 ± 0.0044
mean ionic activity coefficient ([2]; 308.2 K, m1 = 1.489): 0.375 ± 0.0044
mean ionic activity coefficient ([2]; 308.2 K, m1 = 1.744): 0.363 ± 0.0044
mean ionic activity coefficient ([2]; 308.2 K, m1 = 1.995): 0.346 ± 0.0044
mean ionic activity coefficient ([2]; 308.2 K, m1 = 2.251): 0.322 ± 0.0044
mean ionic activity coefficient ([2]; 308.2 K, m1 = 2.499): 0.307 ± 0.0044
mean ionic activity coefficient ([2]; 318.2 K, m1 = 0.0093): 0.8999 ± 0.0044
mean ionic activity coefficient ([2]; 318.2 K, m1 = 0.0187): 0.8927 ± 0.0044
mean ionic activity coefficient ([2]; 318.2 K, m1 = 0.0418): 0.8287 ± 0.0044
mean ionic activity coefficient ([2]; 318.2 K, m1 = 0.0603): 0.7921 ± 0.0044
mean ionic activity coefficient ([2]; 318.2 K, m1 = 0.0786): 0.7691 ± 0.0044
mean ionic activity coefficient ([2]; 318.2 K, m1 = 0.1014): 0.7508 ± 0.0044
mean ionic activity coefficient ([2]; 318.2 K, m1 = 0.2568): 0.6434 ± 0.0044
mean ionic activity coefficient ([2]; 318.2 K, m1 = 0.4956): 0.5317 ± 0.0044
mean ionic activity coefficient ([2]; 318.2 K, m1 = 0.7332): 0.4709 ± 0.0044
mean ionic activity coefficient ([2]; 318.2 K, m1 = 1.003): 0.423 ± 0.0044
mean ionic activity coefficient ([2]; 318.2 K, m1 = 1.244): 0.399 ± 0.0044
mean ionic activity coefficient ([2]; 318.2 K, m1 = 1.487): 0.385 ± 0.0044
mean ionic activity coefficient ([2]; 318.2 K, m1 = 1.743): 0.366 ± 0.0044
mean ionic activity coefficient ([2]; 318.2 K, m1 = 1.995): 0.344 ± 0.0044
mean ionic activity coefficient ([2]; 318.2 K, m1 = 2.251): 0.33 ± 0.0044
mean ionic activity coefficient ([2]; 318.2 K, m1 = 2.5): 0.32 ± 0.0044
